PubChem BioAssay (NCI)
Several values for one entry are separate records, joined by “and”; a condition that tells them apart may be missing. Identical values can stand only once.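 Grown in 96-well plates, cells were treated for 48 hours with each compound at five concentrations. Insufficient inhibition: endpoint recorded as highest concentration tested. Abbreviation: GI50, concentration required for 50% inhibition of growth. TGI denotes the concentration required for complete inhibition of growth.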

Tests used:
Assay in all cases: NCI tumour cell line growth inhibition, 48 h
DMS 273 small cell lung = system: DMS 273 small cell lung
MALME-3M melanoma = system: MALME-3M melanoma
HT29 colon = system: HT29 colon
HOP-62 NSCLC = system: HOP-62 NSCLC
UACC-62 melanoma = system: UACC-62 melanoma
SK-MEL-5 melanoma = system: SK-MEL-5 melanoma
OVCAR-4 ovarian = system: OVCAR-4 ovarian
OVCAR-3 ovarian = system: OVCAR-3 ovarian
SNB-75 CNS = system: SNB-75 CNS
SK-MEL-28 melanoma = system: SK-MEL-28 melanoma
SN12C renal = system: SN12C renal
DMS 114 small cell lung = system: DMS 114 small cell lung
DLD-1 colon = system: DLD-1 colon
TK-10 renal = system: TK-10 renal
NCI-H23 lung = system: NCI-H23 lung
LOX IMVI melanoma = system: LOX IMVI melanoma
K-562 leukemia = system: K-562 leukemia
COLO 205 colon = system: COLO 205 colon
A498 renal = system: A498 renal
SNB-19 CNS = system: SNB-19 CNS
KM20L2 colon = system: KM20L2 colon
HCT-15 colon = system: HCT-15 colon
XF 498 CNS = system: XF 498 CNS
HOP-92 NSCLC = system: HOP-92 NSCLC
RPMI-8226 leukemia = system: RPMI-8226 leukemia
U251 CNS = system: U251 CNS
SF-539 CNS = system: SF-539 CNS
RXF 393 renal = system: RXF 393 renal
SF-268 CNS = system: SF-268 CNS
SK-OV-3 ovarian = system: SK-OV-3 ovarian
HCC-2998 colon = system: HCC-2998 colon
CAKI-1 renal = system: CAKI-1 renal
M14 melanoma = system: M14 melanoma
SR leukemia = system: SR leukemia
CCRF-CEM leukemia = system: CCRF-CEM leukemia
M19-MEL melanoma = system: M19-MEL melanoma
SF-295 CNS = system: SF-295 CNS
NCI-H460 lung = system: NCI-H460 lung
SK-MEL-2 melanoma = system: SK-MEL-2 melanoma
LXFL 529 NSCLC = system: LXFL 529 NSCLC
NCI-H522 lung = system: NCI-H522 lung
HL-60(TB) leukemia = system: HL-60(TB) leukemia
A549 NSCLC = system: A549 NSCLC
IGROV1 ovarian = system: IGROV1 ovarian
MOLT-4 leukemia = system: MOLT-4 leukemia
KM12 colon = system: KM12 colon
NCI-H226 lung = system: NCI-H226 lung
OVCAR-5 ovarian = system: OVCAR-5 ovarian
HCT-116 colon = system: HCT-116 colon
OVCAR-8 ovarian = system: OVCAR-8 ovarian
SNB-78 CNS = system: SNB-78 CNS
EKVX NSCLC = system: EKVX NSCLC
786-0 renal = system: 786-0 renal
SW-620 colon = system: SW-620 colon
UO-31 renal = system: UO-31 renal
ACHN renal = system: ACHN renal
HOP-18 NSCLC = system: HOP-18 NSCLC
UACC-257 melanoma = system: UACC-257 melanoma
RXF-631 renal = system: RXF-631 renal

CC(=O)OC1CC2C(C)(C)OC(=O)CC(OC(C)=O)[C@]2(C)C2CCC3(C)C(=CCC3c3ccoc3)[C@]12C (stereo partly drawn)
TGI (DMS 273 small cell lung): 41.1 µM
TGI (MALME-3M melanoma): 92.6 µM
TGI (HT29 colon): 39.3 µM
TGI (HOP-62 NSCLC): 96.6 µM
TGI (UACC-62 melanoma): > 100 µM
TGI (SK-MEL-5 melanoma): > 100 µM
TGI (OVCAR-4 ovarian): > 100 µM
TGI (OVCAR-3 ovarian): 60 µM
TGI (SNB-75 CNS): 83.5 µM
TGI (SK-MEL-28 melanoma): > 100 µM
TGI (SN12C renal): > 100 µM
TGI (DMS 114 small cell lung): 96.4 µM
TGI (DLD-1 colon): 31.3 µM
TGI (TK-10 renal): > 100 µM
TGI (NCI-H23 lung): > 100 µM
TGI (LOX IMVI melanoma): > 100 µM
TGI (K-562 leukemia): > 100 µM
TGI (COLO 205 colon): 29.8 µM
TGI (A498 renal): > 100 µM
TGI (SNB-19 CNS): > 100 µM
TGI (KM20L2 colon): > 100 µM
TGI (HCT-15 colon): > 100 µM
TGI (XF 498 CNS): 36 µM
TGI (HOP-92 NSCLC): 29.9 µM
TGI (RPMI-8226 leukemia): > 100 µM
TGI (U251 CNS): > 100 µM
TGI (SF-539 CNS): 93.3 µM
TGI (RXF 393 renal): > 100 µM
TGI (SF-268 CNS): > 100 µM
TGI (SK-OV-3 ovarian): 54.1 µM
TGI (HCC-2998 colon): 52.4 µM
TGI (CAKI-1 renal): > 100 µM
TGI (M14 melanoma): 46.5 µM
TGI (SR leukemia): 50.8 µM
TGI (CCRF-CEM leukemia): 87.3 µM
TGI (M19-MEL melanoma): 52.3 µM
TGI (SF-295 CNS): 98.3 µM
TGI (NCI-H460 lung): > 100 µM
TGI (SK-MEL-2 melanoma): 25.1 µM
TGI (LXFL 529 NSCLC): > 100 µM
TGI (NCI-H522 lung): 81.2 µM
TGI (HL-60(TB) leukemia): > 100 µM
TGI (A549 NSCLC): > 100 µM
TGI (IGROV1 ovarian): 82.8 µM
TGI (MOLT-4 leukemia): 52 µM
TGI (KM12 colon): > 100 µM
TGI (NCI-H226 lung): 69.6 µM
TGI (OVCAR-5 ovarian): > 100 µM
TGI (HCT-116 colon): 58.6 µM
TGI (OVCAR-8 ovarian): 87.1 µM
TGI (SNB-78 CNS): > 100 µM
TGI (EKVX NSCLC): > 100 µM
TGI (786-0 renal): > 100 µM
TGI (SW-620 colon): > 100 µM
TGI (UO-31 renal): > 100 µM
TGI (ACHN renal): > 100 µM

CC(=O)C(N=NC1CCC(S(=O)(=O)NB2N=CS2)CC1)C(=O)Nc1ccccc1C (stereo not drawn)
TGI (DMS 273 small cell lung): 48 µM
TGI (MALME-3M melanoma): 30.5 µM
TGI (HT29 colon): 29.9 µM
TGI (HOP-62 NSCLC): 34.7 µM
TGI (UACC-62 melanoma): 34.8 µM
TGI (SK-MEL-5 melanoma): 26.9 µM
TGI (OVCAR-4 ovarian): 74.1 µM
TGI (OVCAR-3 ovarian): 27 µM
TGI (SNB-75 CNS): 33.8 µM
TGI (SK-MEL-28 melanoma): 30.8 µM
TGI (SN12C renal): 34.7 µM
TGI (DMS 114 small cell lung): 26.3 µM
TGI (DLD-1 colon): 35.4 µM
TGI (TK-10 renal): 58.6 µM
TGI (NCI-H23 lung): 28.9 µM
TGI (K-562 leukemia): > 100 µM
TGI (COLO 205 colon): 37.2 µM
TGI (A498 renal): 33.6 µM
TGI (SNB-19 CNS): 31.2 µM
TGI (KM20L2 colon): 29.6 µM
TGI (HCT-15 colon): 22.3 µM
TGI (XF 498 CNS): 33.6 µM
TGI (HOP-92 NSCLC): 34.3 µM
TGI (RPMI-8226 leukemia): > 100 µM
TGI (U251 CNS): 26.6 µM
TGI (SF-539 CNS): 32.4 µM
TGI (RXF 393 renal): 35.9 µM
TGI (SF-268 CNS): 30.8 µM
TGI (SK-OV-3 ovarian): 50.6 µM
TGI (HCC-2998 colon): 31.4 µM
TGI (HOP-18 NSCLC): 80 µM
TGI (CAKI-1 renal): 46.9 µM
TGI (M14 melanoma): 35.5 µM
TGI (SR leukemia): > 100 µM
TGI (CCRF-CEM leukemia): > 100 µM
TGI (M19-MEL melanoma): 34.1 µM
TGI (SF-295 CNS): 35.1 µM
TGI (NCI-H460 lung): 33.9 µM
TGI (SK-MEL-2 melanoma): 33.3 µM
TGI (LXFL 529 NSCLC): 27.6 µM
TGI (NCI-H522 lung): 29.6 µM
TGI (HL-60(TB) leukemia): > 100 µM
TGI (A549 NSCLC): 28.6 µM
TGI (UACC-257 melanoma): 45.1 µM
TGI (IGROV1 ovarian): 35.2 µM
TGI (MOLT-4 leukemia): > 100 µM
TGI (KM12 colon): 30.1 µM
TGI (NCI-H226 lung): 31.4 µM
TGI (OVCAR-5 ovarian): 39.3 µM
TGI (HCT-116 colon): 26.3 µM
TGI (OVCAR-8 ovarian): 34.1 µM
TGI (SNB-78 CNS): 67.1 µM
TGI (EKVX NSCLC): 41.2 µM
TGI (SW-620 colon): 30 µM
TGI (UO-31 renal): 34 µM
TGI (ACHN renal): 24.6 µM

CCOC(=O)C1=C(c2ccccc2)NC(c2ccccc2)=C(C(=O)OCC)c2c1c(=O)cc[nH]c2=O
TGI (DMS 273 small cell lung): > 100 µM
TGI (MALME-3M melanoma): > 100 µM
TGI (HT29 colon): > 100 µM
TGI (HOP-62 NSCLC): > 100 µM
TGI (UACC-62 melanoma): > 100 µM
TGI (OVCAR-4 ovarian): > 100 µM
TGI (OVCAR-3 ovarian): > 100 µM
TGI (SNB-75 CNS): > 100 µM
TGI (SK-MEL-28 melanoma): > 100 µM
TGI (SN12C renal): > 100 µM
TGI (DLD-1 colon): > 100 µM
TGI (TK-10 renal): > 100 µM
TGI (NCI-H23 lung): > 100 µM
TGI (LOX IMVI melanoma): > 100 µM
TGI (RXF-631 renal): > 100 µM
TGI (K-562 leukemia): > 100 µM
TGI (COLO 205 colon): > 100 µM
TGI (SNB-19 CNS): > 100 µM
TGI (KM20L2 colon): > 100 µM
TGI (HCT-15 colon): > 100 µM
TGI (XF 498 CNS): > 100 µM
TGI (HOP-92 NSCLC): > 100 µM
TGI (RPMI-8226 leukemia): > 100 µM
TGI (U251 CNS): > 100 µM
TGI (SF-539 CNS): > 100 µM
TGI (SF-268 CNS): > 100 µM
TGI (SK-OV-3 ovarian): > 100 µM
TGI (HCC-2998 colon): > 100 µM
TGI (CAKI-1 renal): > 100 µM
TGI (M14 melanoma): > 100 µM
TGI (SR leukemia): > 100 µM
TGI (M19-MEL melanoma): > 100 µM
TGI (SF-295 CNS): > 100 µM
TGI (NCI-H460 lung): > 100 µM
TGI (SK-MEL-2 melanoma): > 100 µM
TGI (LXFL 529 NSCLC): > 100 µM
TGI (NCI-H522 lung): > 100 µM
TGI (HL-60(TB) leukemia): > 100 µM
TGI (A549 NSCLC): > 100 µM
TGI (UACC-257 melanoma): > 100 µM
TGI (IGROV1 ovarian): > 100 µM
TGI (MOLT-4 leukemia): > 100 µM
TGI (KM12 colon): > 100 µM
TGI (NCI-H226 lung): > 100 µM
TGI (OVCAR-5 ovarian): > 100 µM
TGI (HCT-116 colon): > 100 µM
TGI (OVCAR-8 ovarian): > 100 µM
TGI (SNB-78 CNS): > 100 µM
TGI (786-0 renal): > 100 µM
TGI (SW-620 colon): > 100 µM
TGI (UO-31 renal): > 100 µM
TGI (ACHN renal): > 100 µM

CC(=O)OCC1OC(n2c(=S)n(-c3ccccc3)c(=S)c3ccccc32)C(OC(C)=O)C(OC(C)=O)C1OC(C)=O (stereo not drawn)
TGI (SNB-75 CNS): > 100 µM
TGI (TK-10 renal): > 100 µM
GI50 (LOX IMVI melanoma): 60.4 µM and 19.7 µM
TGI (LOX IMVI melanoma): > 100 µM
TGI (RXF-631 renal): > 100 µM
GI50 (XF 498 CNS): 28.3 µM and 4.4 µM
TGI (XF 498 CNS): > 100 µM
TGI (HOP-92 NSCLC): > 100 µM
TGI (SF-539 CNS): > 100 µM
GI50 (RXF 393 renal): 38.4 µM and 4.04 µM
TGI (RXF 393 renal): > 100 µM
GI50 (SF-268 CNS): 77.9 µM and 9.64 µM
TGI (SF-268 CNS): > 100 µM
TGI (HOP-18 NSCLC): > 100 µM
GI50 (CAKI-1 renal): 50.7 µM and 20 µM
TGI (CAKI-1 renal): > 100 µM
TGI (M14 melanoma): > 100 µM
GI50 (SK-MEL-2 melanoma): 78.6 µM and > 35.8 µM
TGI (SK-MEL-2 melanoma): > 100 µM
GI50 (LXFL 529 NSCLC): 62.3 µM and 8.58 µM
TGI (LXFL 529 NSCLC): > 100 µM
TGI (HCT-116 colon): > 100 µM
TGI (786-0 renal): > 100 µM
TGI (UO-31 renal): > 100 µM
